Assay results as given in patent US7525013B2, “Soybean selection system based on AEC-resistance” (United Soybean Board, priority 2003, dated 2009).

Assays:
[1] = tested on: E. coli auxotroph AT998 rescued with modified soybean DHPS gene; test: Growth of E. coli auxotroph rescued with modified soybean DHPS gene on 2-AEC plates; assay type: cell-based; settings: minimal media plates with 0.5 mM 2-AEC
Excerpt: To test if the modified soy DHDPS can become insensitive to AEC and whether 18:1 desaturases can function as a 16:1 desaturase, experiments were conduced with E. Coli auxotrophs. A DHDPS auxotroph was obtained from the E. coli genetic center that can be rescued on medium without diaminopimelic acid when transformed with lysine insensitive DHPS and not with the wild type gene. Similarly, the E. coli auxotroph (fabA/fadR mutant) was obtained which can be complimented by C14 and C16 ACP desaturases but not by stearoyl-ACP desaturases. The primers required for cloning were designated and obtained from soybean genes. A suitable E. coli expression vector was obtained to express these genes in the respective auxotrophs.
It was shown in Arabidopsis, and populous deltoidsXpopulus tricho carpa modification of tryptophan53 (W) to Arginine53 (R) made the DHPS enzyme from these two plants insensitive to lysine concentrations up to 1 mM. E. coli auxotroph AT997 was rescued using these modified genes. This tryptophan residue is present in the consensus sequence MSWDEHI (SEQ ID NO: 6) in several plant DHPS genes (Vauterin et al.,2000). […] With our modified soybean DHPS gene we obtained similar results. We also targeted the tryptophan residue present in the consensus sequence MSWDEHI (SEQ ID NO: 6) in the soybean DHPS gene to convert it to arginine.

[2] = tested on: proliferating soybean somatic embryos; test: Killing / growth inhibition of proliferating soybean somatic embryos; assay type: cell-based
Method: (§1) As a first step in the selection, different concentrations of AEC were used to see if it can kill the proliferating soybean somatic embryos as well as tobacco leaves and germinating tobacco and soybean seeds and germinating soybean somatic embryos. The effect of AEC is clearly seen in all these cases with varying concentrations. […] For proliferating soybean somatic embryo concentrations up to 1 mM AEC is needed along with 0.0075% methylated seed oil to kill them. To further confirm that AEC is acting on the above mentioned tissues, the E. coli DHDPS gene was cloned and put into the binary vector p1201 with the pea RBCs transit peptide under the CaMV 35S promoter.
However, selection during proliferation is always a better way as selected clones can be proliferated and the untransformed embryos can be killed in the earlier stages itself. Unfortunately concentrations up to 20 mM were not sufficient to kill most of the proliferating embryos, though some of the embryos turned yellowish and developed brown spots, but many of them continued to proliferate like controls even after two changes of the medium, once every 15 days. To find out if surfactants can help in AEC absorption during proliferation a methylated seed oil based surfactant was used. […] It was determined that a 0.005% concentration is suitable to use with AEC. […] The cultures on plates with 20 mM AEC died in 4 days indicating solid medium selection can be useful.
(§2) Spray studies have been done using major dicot and monocot weeds, pigweed (Amaranthus retroflexus) and giant foxtail (Setaria faberi) in addition to tobacco. These experiments using 7 to 10 day old seedlings show 20 mM AEC is lethal to pigweed, foxtail and tobacco.

tobacco = test: Herbicide spray study on tobacco; assay type: in vivo
Method: as §2
(§3) A major dicot and monocot weed of tobacco, pigweed (Amaranthus retroflexus) and giant foxtail (Setaria faberi) was used in addition to a model crop plant, tobacco. […] For larger plants grown in the green house 20 mM lysine and threonine or 40 mM lysine alone are needed for effective weed control. To increase uptake of these compounds, up to 0.2% Silwett (surfactant) was used. Silwett at 0.5% and above kills the plants. Silwett was not found to be a very effective surfactant. Studies with cultured cells and seedlings indicate that 100 μM levels of AEC are effective for selection.

tobacco seeds = test: Germination of tobacco seeds; assay type: in vivo; settings: germinating tobacco seeds
Method: as §1

[3] = tested on: giant foxtail (Setaria faberi); test: Herbicide spray study on giant foxtail; assay type: in vivo
Method: as §2, §3

[4] = tested on: germinating soybean somatic embryos; test: Germination of soybean somatic embryos; assay type: cell-based
Method: as §1
The effect of AEC on soybean somatic embryos were checked at two stages (1) during the germination (2) during proliferation. The AEC effect during germination was very effective with concentrations above 100 μM were enough to prevent the germination completely.
(§4) To determine whether AEC can be developed as a selectable marker for soybeans the effect of different concentrations of AEC was examined on the germination of soybean seeds and matured soybean somatic embryos and on proliferating soybean somatic embryos. The effect of AEC is clearly seen in all these cases with varying concentrations. The effect of AEC was also examined as a herbicide against pigweed, foxtail and tobacco.

[5] = tested on: pigweed (Amaranthus retroflexus); test: Herbicide spray study on pigweed; assay type: in vivo
Method: as §2, §3

DHPS enzyme of E. coli = DHPS enzyme of E. coli (Escherichia coli, UniProt P0A6L2); settings: E. coli DHPS versus plant enzymes; cited from earlier work
DHPS enzyme of E. coli, sequence (P0A6L2 whole entry): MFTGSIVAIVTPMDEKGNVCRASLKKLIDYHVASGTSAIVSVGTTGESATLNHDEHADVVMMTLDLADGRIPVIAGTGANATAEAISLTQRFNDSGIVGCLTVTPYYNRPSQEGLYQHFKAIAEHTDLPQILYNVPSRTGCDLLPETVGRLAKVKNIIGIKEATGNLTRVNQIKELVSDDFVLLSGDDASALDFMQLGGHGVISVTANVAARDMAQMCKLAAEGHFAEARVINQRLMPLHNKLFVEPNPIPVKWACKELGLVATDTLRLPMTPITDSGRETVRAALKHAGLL

[6] = tested on: cultured cells and seedlings; test: Selection studies with cultured cells and seedlings; assay type: cell-based
Method: as §3

soybean seeds = test: Germination of soybean seeds on AEC containing agar plates; assay type: in vivo
Method: as §1
(§5) An AEC selection system for soybean seeds with precise genetic changes and model system seeds (for rapid system validation) were germinated on 2 mM and 5 mM AEC containing agar plates. On the control plates without AEC all the seeds germinated, however only ˜10% of the soybean seeds germinated on 2 mM AEC plates and none on 5 mM plates.
as §4

model system seeds = test: Germination of model system seeds on AEC containing agar plates; assay type: in vivo; settings: 2 mM and 5 mM AEC agar plates
Method: as §5

[7] = tested on: Clones expressing the insensitive plant DHPS enzymes (E. coli auxotroph AT997); settings: clones expressing lysine insensitive plant DHPS; cited from earlier work
[8] = tested on: larger plants grown in the green house; test: Weed control on larger plants grown in the green house; assay type: in vivo
Method: as §3

[9] = tested on: DHPS enzyme, tryptophan53 (W) to Arginine53 (R); settings: W53R DHPS; cited from earlier work
plant enzymes (DHPS) = settings: read-out: IC50 for lysine; cited from earlier work
[10] = molecular target: T1, DHPS enzyme, tryptophan53 (W) to Arginine53 (R) (Arabidopsis thaliana, UniProt Q9LZX6, W116R); settings: W53R DHPS; cited from earlier work
T1 construct: host or cells: E. coli auxotroph AT997 (clones expressing the plant cDNA)
T1 sequence (Q9LZX6 40-365 W116R): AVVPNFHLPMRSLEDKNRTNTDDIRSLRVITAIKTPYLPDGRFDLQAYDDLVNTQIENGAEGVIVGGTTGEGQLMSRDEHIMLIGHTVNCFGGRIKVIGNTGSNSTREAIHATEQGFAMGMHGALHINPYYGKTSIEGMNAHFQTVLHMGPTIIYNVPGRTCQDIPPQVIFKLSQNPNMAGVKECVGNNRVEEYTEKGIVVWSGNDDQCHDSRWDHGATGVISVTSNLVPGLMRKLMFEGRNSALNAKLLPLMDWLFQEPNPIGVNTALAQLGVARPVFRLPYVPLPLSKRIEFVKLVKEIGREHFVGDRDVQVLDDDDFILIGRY

## NCCSC[C@H](N)C(=O)O [AEC, S-2-aminoethyl-cysteine]
[1]
  growth of rescued auxotroph: grows well
[2]; along with 0.0075% methylated seed oil
  AEC concentration needed to kill proliferating soybean somatic embryos: up to 1 mM
[2]; on 1/5th D20 medium (1/5 MS salts, 1/5 B5 vitamins, 20 mg/L 2,4-D)
  AEC concentration sufficient to kill proliferating soybean somatic embryos: 1.5 mM
[2]; solid medium plates, 0.2% surfactant, 20 mM AEC
  time until cultures died: 4 days
[2]; solid medium, 0.2% surfactant, 10 mM AEC, controls behaved the same
  state of proliferating embryo cultures: remained green with growth for two weeks before they died
[2]; without surfactant, two changes of medium, once every 15 days
  AEC concentrations not sufficient to kill most of the proliferating embryos: up to 20 mM
tobacco; 7 to 10 day old seedlings
  concentration lethal to tobacco: 20 mM
tobacco; whole plant level
  concentration sufficient to kill tobacco: 20 mM
Tobacco seeds
  AEC concentration required to completely inhibit germination of tobacco seeds: 2.5 mM
[3]; 7 to 10 day old seedlings
  concentration lethal to foxtail: 20 mM
[3]; whole plant level
  concentration sufficient to kill fox tail: 20 mM
[4]; 100 μM AEC
  effect on germination of soybean somatic embryos: quite effective
[4]; Example 1
  AEC concentration sufficient to completely inhibit germination of soybean somatic embryos: 100 μm
[4]; qualitative
  inhibition of soybean somatic embryos (SSE) germination: can inhibit
[5]; 7 to 10 day old seedlings
  concentration lethal to pigweed: 20 mM
[5]; whole plant level
  concentration that effectively prevented the growth of pig weed: 20 mM
DHPS enzyme of E. coli
  fold less sensitive to AEC than plant enzymes: 50 fold
[6]
  AEC levels effective for selection: 100 µM
Soybean seeds; 2 mM AEC agar plates, all seeds germinated on control plates
  soybean seeds germinated: ~10%
Soybean seeds; 2.5 mM AEC
  effect on germination of soybean seeds: quite effective
Soybean seeds; 5 mM AEC agar plates
  soybean seeds germinated: none
Soybean seeds; qualitative
  inhibition of seed germination: can inhibit
Model system seeds
  model system seeds germinated: Not a single model system seed germinated
[7]
  2-AEC concentration to which clones were resistant: 2.5 mM

## NCCCC[C@H](N)C(=O)O [lysine]
[8]
  concentration needed for effective weed control: 40 mM
[9]
  lysine concentrations to which the modified DHPS enzyme is insensitive: up to 1 mM
Plant enzymes (DHPS)
  IC50: 10 µM
[10]
  lysine concentrations to which the modified DHPS enzyme is insensitive: up to 1 mM
